The results in this text go back to PMC6967409 (Frontiers in Chemistry, 2020).

SMILES strings stand for the structures. “And” between values parts separate entries of the source, which are not always exact repeats. Identical values can stand only once. Like-named read-outs stand apart in the source and are kept apart here.

The subject of series [1] is P. berghei ANKA GFP-Luc-SMcon sporozoites. In words: P. berghei-luciferase liver stage bioluminescence assay (causal prophylactic mode) in HepG2-CD81 cells. It counts as cell-based, Plasmodium berghei. The protocol:
(§1) Briefly, HepG2-CD81 cells were seeded into 1,536 well plates containing 50 nL of test and control compounds diluted into DMSO. […] Next, 2 μL of luciferin reagent (Promega BrightGlo) was added to each well and luciferase activity was detected using a Perkin Elmer Envision plate reader. […] In parallel, plates were processed without sporozoites for HepG2 toxicity measurements.
(§2) In continuation of the transmission blocking theme, it is important to establish activities against liver stage parasites. […] This assay uses ultra-high-throughput screening methods optimized for a 1536-well format and a HepG2 human hepatoma cell line. […] To establish selectivity of the compounds for the parasite in the liver stage of infection, cytotoxicity was determined by measuring bioluminescence from the reaction between free ATP of compound-treated, uninfected hepatocytes and a luciferase reporter system.

Series [2] in a line: HepG2 cytotoxicity bioluminescence assay (CellTiterGlo, ATP). It counts as cell-based, human. The settings on record: human, uninfected HepG2-CD81 cells. The protocol: as §1, §2
For orientation: ATP-based viability assays read luminescence as a measure of living cells.

The test system of the next series is HepG2 cells. Described as above. It counts as cell-based, human. The note with it: two biological replicates listed in one cell. The procedure: as §1, §2
Series [3] in a line: Cytotoxicity, Cytoselect LDH cytotoxicity assay kit. It counts as cell-based. The note with it: human, HepG2 cells. The protocol: (§3) Cytotoxicity (EC50) was determined against Chinese hamster ovarian (CHO) using a 3-(4,5-dimethylthiazol-2-yl)-2,5-diphenyltetrazolium bromide (MTT) assay and hepatocellular carcinoma cells (HepG2) using the Cytoselect LDH cytotoxicity assay kit (Cell Biolabs).

For series [4], the system named is P. falciparum NF54 early stage gametocytes (>90% stage I–III). In words: Gametocytocidal luciferase reporter assay, early stage, 48 h. The settings on record: Plasmodium falciparum, NF54, 48 h, read-out: Early Stage (EG, Luc 48 h) IC50; >90% stage I–III gametocytes, ±SEM. It counts as cell-based. The protocol:
(§4) P. falciparum parasites (NF54, K1, and W2) were cultured in vitro in human erythrocytes (A^+ or O^+) under 90% N2, 5% CO2, and 5% O2 atmospheric conditions with supplemented RPMI 1640 media (Sigma Aldrich) containing Albumax II, as previously described (Verlinden et al., [2011]). This study was carried out according the guidelines set out by the Faculty of Health Sciences Ethical Committee, Ethical Clearance no. EC-120821/077. The protocol was approved by the Faculty of Health sciences ethical committee at the University of Pretoria. All subjects gave written informed consent in accordance with the Declaration of Helsinki. Parasite proliferation was monitored microscopically using Giemsa stained smears. Synchronized ring stage parasites (>95%) were obtained using a 5% D-sorbitol (Sigma Aldrich) treatment. […] Gametocyte cultures were kept stationary under 90% N2, 5% CO2, and 5% O2 atmospheric conditions at 37°C and treated with 50 mM N-acetyl-glucosamine (NAG) to eliminate residual invasion of asexual parasites.
(§5) Gametocytocidal activity was determined using the luciferase reporter line (Reader et al., [2015]) to derive dose responses with two-fold serial drug dilutions for 48 h against early stage gametocytes (day 5 post-induction population, >90% stage I–III) and 10-fold serial drug dilutions for 72 h against late stage gametocytes (day 10 post-induction population, >90% late stage IV–V) (2% gametocytemia, 2% hematocrit), at 37°C under 90% N2, 5% CO2, and 5% O2 atmospheric conditions.
(In general: In a reporter assay the amount or activity of a reporter protein is the signal.)

A further series relates to P. falciparum W2. The series is described as follows: Proliferative (SYBR Green I) assay, asexual parasites, 96 h. It counts as cell-based. The note with it: Plasmodium falciparum, ±SEM. The protocol: as §4
(§6) Working solutions of the derivatives were prepared from a 10 mM stock solution in 100% DMSO in supplemented RPMI 1640 media containing Albumax II with a final DMSO concentration of <0.1%, previously determined as being non-toxic to intraerythrocytic asexual parasites and gametocytes. Dose responses were assayed using a two-fold serial drug dilution on in vitro >95% ring stage intraerythrocytic P. falciparum parasites at 37°C under 90% N2, 5% CO2, and 5% O2 atmospheric conditions, detecting both parasite lactate dehydrogenase (pLDH) activity as a metabolic marker following a 48 h drug exposure (1.5–2% parasitemia and 2% hematocrit; Makler et al., [1993]) and SYBR Green I fluorescence as proliferative marker following a 96 h drug exposure (1% parasitemia and 1% hematocrit). […] Data analysis was performed using GraphPad Prism 7.

The subject of another series is P. falciparum K1. Described as above. It counts as cell-based. The note with it: Plasmodium falciparum, ±SEM. The procedure:
as §4, §6

Series [5] deals with P. falciparum NF54. The description is as above. Format: cell-based. The note with it: Plasmodium falciparum, ±SEM. The protocol:
as §4, §6

In series [6] the test system is P. falciparum NF54 late stage gametocytes (>90% stage IV and V). In words: Gametocytocidal luciferase reporter assay, late stage, 72 h. Format: cell-based, Plasmodium falciparum. The procedure: as §4, §5
Series [7] relates to asexual P. falciparum NF54, Dd2, K1, W2. The series is described as follows: Asexual P. falciparum, metabolic (pLDH) and proliferative (SYBR Green I) platforms. Format: cell-based. The settings on record: Plasmodium falciparum; drug-sensitive and -resistant parasites, both assay platforms; read-out: IC50, asexual P. falciparum metabolic activity and proliferation. The protocol: Data analysis was performed using GraphPad Prism 7.
The in vitro activities of the new derivatives were determined against drug sensitive NF54 and multi-drug resistant Dd2, K1, and W2 intraerythrocytic asexual P. falciparum malaria parasite strains using both a metabolic (parasite LDH) and a proliferative (SYBR Green I fluorescence) assay readout (Table 1).

The test system of series [8] is P. falciparum NF54. In words: Metabolic (parasite LDH) assay, asexual ring stage parasites, 48 h. It counts as cell-based. The note with it: Plasmodium falciparum, pLDH, CQ-sensitive NF54. The procedure: as §4, §6
In the next series the test system is P. falciparum Dd2. The series is described as above. Format: cell-based. The note with it: Plasmodium falciparum, pLDH, Dd2 CQ, pyrimethamine resistant. The procedure:
as §6

The next series can be described thus: Cytotoxicity, MTT assay. Format: cell-based. The settings on record: Chinese hamster, CHO cells. The protocol:
as §3
On the technique in general: Formazan colour is commonly taken as a measure of viable cells.

[9] abbreviates: Plasmodium berghei, HepG2, 48 h, liver stage, HepG2 host cells, luciferase after 48 h, ±SD, read-out: P. berghei sporozoites IC50.
[10] abbreviates: Plasmodium falciparum, NF54, 72 h, read-out: Late Stage (LG, Luc 72 h) IC50, >90% stage IV and V gametocytes, ±SEM.
Setting [11] is: read-out: Late Stage (LG, Luc 72 h) IC50, >90% stage IV and V gametocytes, ±SEM.

By inhibition is commonly meant the percentage by which the read-out fell short of the control. With `CO[C@H]1O[C@@H]2O[C@@]3(C)CC[C@H]4[C@H](C)CC[C@@H]([C@H]1C)[C@@]24OO3` [Artemether 3, artemether], the IC50 in series [1] (setting [9]) was over 10000 nM. Besides, in series [1] (Plasmodium berghei, Conc. 10 μM, read-out: P. berghei sporozoites Maximum inhibition %), the inhibition at 10 µM is 49.4%.
The term EC50 denotes the concentration needed to bring the measured effect to its halfway point. Take `O=C1C(O)=C([C@H]2CC[C@H](c3ccc(Cl)cc3)CC2)C(=O)c2ccccc21` [Atovaquone]: the Emax in [1] (Plasmodium berghei, 48 h, two biological replicates listed in one cell, read-out: P.berghei-Luciferase Liver Stage Bioluminescence Assay: Maximum measured (%)) worked out at 92.9%. Moreover, the IC50 in [1] (setting [9]) is 2.52 ± 0.997 nM; in series [1] (Plasmodium berghei, two biological replicates listed in one cell, read-out: P.berghei-Luciferase Liver Stage Bioluminescence Assay: IC50), 3.23 nM; in series [1] (two biological replicates listed in one cell, read-out: P.berghei-Luciferase Liver Stage Bioluminescence Assay: IC50), 1.81 nM; with HepG2 cells, over 250 nM. For the same molecule, the inhibition at 0.5 µM in series [1] (Plasmodium berghei, Conc. 0.5 μM, read-out: P. berghei sporozoites Maximum inhibition %) is 94.8 ± 2.76%. In addition, in series [2] (two biological replicates listed in one cell), the IC50 at 72 h is over 250 nM. Besides, the 50% effective concentration (EC50) at 72 h in series [2] (uninfected HepG2, ATP bioluminescence) is over 250 nM. In addition, the “HepG2 Cytotoxicity Bioluminescence Assay: Maximum measured (%)” value in the series on HepG2 cells is 16.9% and 8.57%.
As to `CCCCS(=O)(=O)N1CCN([C@@H]2O[C@@H]3O[C@@]4(C)CC[C@H]5[C@H](C)CC[C@@H]([C@H]2C)[C@@]35OO4)CC1` [Compound 13], in [3], the half-maximal effective concentration (EC50) was found to be 2720 nM. For the same molecule, the IC50 is 21.5 ± 10.4 nM in [4]; 4.4 ± 1 nM in the series with P. falciparum W2; 3.1 ± 0.1 nM in the series with P. falciparum K1; 2.7 ± 0.6 nM in the series with P. falciparum NF54 [5]; 0.4 to 0.7 nM in series [6] (setting [10]); 0.5 ± 0.3 nM in series [6] (setting [11]).
For the molecule `CCCCCCCCCCCCCCCCS(=O)(=O)N1CCN([C@@H]2O[C@@H]3O[C@@]4(C)CC[C@H]5[C@H](C)CC[C@@H]([C@H]2C)[C@@]35OO4)CC1` [Compound 14], the IC50 in [7] was 50 to 100 nM.
In the case of `CC(=O)Nc1ccc(S(=O)(=O)N2CCN([C@@H]3O[C@@H]4O[C@@]5(C)CC[C@H]6[C@H](C)CC[C@@H]([C@H]3C)[C@@]46OO5)CC2)cc1` [Compound 15], the IC50 is 1.3 ± 0.5 nM with P. falciparum NF54 [8]; 8 ± 2.3 nM in series [4]; 5.4 ± 0.5 nM in the series with P. falciparum W2; 3.4 ± 0.3 nM in the series on P. falciparum K1; 2.7 ± 0.7 nM in the series on P. falciparum NF54 [5]; 3.54 ± 0.32 nM in the series on P. falciparum Dd2. Besides, the EC50 in series [3] is 1950 nM; in the series “Cytotoxicity, MTT assay”, over 177000 nM.
Consider `C[C@H]1[C@H](N2CCN(S(=O)(=O)c3cccc(C(F)(F)F)c3)CC2)O[C@@H]2O[C@@]3(C)CC[C@H]4[C@H](C)CC[C@@H]1[C@@]24OO3` [Compound 16], for which the IC50 with P. falciparum NF54 [8] is 1.13 ± 0.12 nM; in series [4] it was 19.7 ± 9.9 nM; with P. falciparum W2, 4.6 ± 0.2 nM; with P. falciparum K1, 5 nM; in the series on P. falciparum NF54 [5], 3.4 ± 0.6 nM; in the series with P. falciparum Dd2, 7.46 ± 1.07 nM. The figures for the IC50 in series [6] (setting [10]) and in series [6] (setting [11]) were 0.4 to 0.7 nM and 0.4 ± 0.3 nM, respectively. In addition, the EC50 in series [3] was 431 nM; in “Cytotoxicity, MTT assay” it was over 178000 nM.
As to `C[C@H]1[C@H](N2CCN(S(=O)(=O)c3cccc(F)c3)CC2)O[C@@H]2O[C@@]3(C)CC[C@H]4[C@H](C)CC[C@@H]1[C@@]24OO3` [Compound 17], the IC50 in the series with P. falciparum NF54 [8] was 2 ± 0.6 nM; in series [4], 13.1 ± 7.2 nM; with P. falciparum W2, 4.6 ± 0.2 nM; in the series on P. falciparum K1, 4.85 ± 1.1 nM; in the series with P. falciparum NF54 [5] it was 3.1 ± 0.2 nM; in the series with P. falciparum Dd2 it was 6.2 ± 0.7 nM. In addition, the IC50 was 0.4 to 0.7 nM in series [6] (setting [10]) and 0.6 ± 0.4 nM in [6] (setting [11]). In addition, the EC50 in series [3] is 637 nM; in “Cytotoxicity, MTT assay”, over 196000 nM.
